# Assay results from a melting point compilation (Tetko et al.).
row,SMILES,melting point
1,C=C(C)C(CC)CC,-113 °C
2,O=C(Nc1ccccc1SC(=O)c1ccccc1)c1ccccc1,152 °C
3,N#C/C(=C\c1ccccc1O)c1nc2ccccc2s1,188 °C
4,CCOC(=O)C(Cl)=NNc1ccccc1,77 to 80 °C
5,BrCCC1CCCCC1,-57 °C
6,O=[N+]([O-])c1ccc2c3c(ccc(C(Cl)=Cc4ccccc4)c13)CC2,161 °C
7,CC(C)(c1cc(Cl)c(O)c(Cl)c1)c1cc(Cl)c(O)c(Cl)c1,135 °C
8,O=C(NO)c1ccc(Cl)cc1O,195 to 199 °C
9,NC(=S)c1ccc2nonc2c1,132 to 135 °C
10,NC(=O)C(Br)(Br)C(N)=O,205 °C
11,O=C(N(c1ccccc1)c1ccccc1)C(F)(F)C(F)(F)C(F)(F)C(F)(F)C(F)(F)C(F)(F)C(F)(F)C(F)(F)F,92 °C
12,CN(C)CCCCN(C)C,-100 °C
13,NC(Cc1ccc(O)c(I)c1)C(=O)O (stereo not drawn),205 °C
14,NCCCP(=O)(O)O,290 to 294 °C
15,COC1=CC2C3Cc4ccc(OC)c(O)c4C2(CCN3C)CC1=O (stereo not drawn),162 °C
16,Cc1cc2ccccc2c2ccc3ccccc3c12,118 °C
17,NC1=NCC2c3ccccc3Cc3ccccc3N12 (stereo not drawn),206 °C
18,N=C(N)NC(=N)Nc1ccccc1,143 °C
19,O=C(N[C@@H](Cc1ccccc1)C(=O)Oc1c(F)c(F)c(F)c(F)c1F)OCC1c2ccccc2-c2ccccc21,151 to 152 °C
20,CCOC(=O)c1c(N)sc2c1CCCC2,116 °C
21,O=C(c1ccc2ccccc2c1)c1noc(-c2ccc([N+](=O)[O-])cc2)c1S(=O)(=O)c1ccccc1,131 °C
22,c1ccc(Cc2c3ccccc3c(Cc3ccccc3)c3ccccc23)cc1,246 °C
23,O=C(c1ccco1)c1noc(-c2ccc(Br)cc2)c1S(=O)(=O)c1ccccc1,133 °C
24,O=S(=O)(O)c1ccc(Nc2ccccc2)cc1,206 °C
25,CNC(N)=S,120 °C

# Now from value to compound:
row,melting point,SMILES
1,164 to 165 °C,O=[N+]([O-])c1coc2ccc(O)cc12
2,35 to 37 °C,COC(=O)c1cc(C)c(Br)s1
3,357 °C,Cn1cnc2c1c(=O)[nH]c(=O)n2C
4,270 to 320 °C,N#Cc1ccc2c(c1)[N+]([O-])=C(c1cccc(C3=[N+]([O-])c4cc(C#N)ccc4C3=O)c1)C2=O
5,89 °C,COc1ccccc1-c1ccc(/C=C2/C=C(CC(C)C)OC2=O)o1
6,285 °C,Cc1cc(=O)[nH]c2c(/N=N/c3ccc(O)cc3)c(N)nn12
7,199 to 201 °C,Cn1c(N)c(C=O)c(=O)n(C)c1=O
8,50 to 55 °C,Cc1cc(N)ccc1I
9,48 °C,Cc1cc(Cl)cc(C)c1N
10,79 °C,COc1ccc(O)c([N+](=O)[O-])c1
11,111 to 112 °C,CCOC(=O)c1c(-c2ccc(Cl)cc2)csc1N
12,118 °C,COC(=O)c1ccc2c(c1)CC1(CCC(c3ccc(C(C)(C)C)cc3)CC1)C2 (stereo not drawn)
13,200 to 201 °C,Cc1nc(-c2cccc(C(=O)O)c2)cs1
14,169 °C,Cc1oc(S(=O)(=O)N(C)C)cc1C(=O)O
15,57 °C,O=C1CCCCCN1c1ccccc1
16,121 °C,Cc1cccc2c(=O)c(=O)c12
17,121 to 124 °C,COC(=O)c1noc(C)c1C(C)=NO
18,110 °C,CCOC(=O)c1nc(C(Cl)(Cl)Cl)n(-c2ccc(Cl)cc2Cl)n1
19,150 °C,Cc1[nH]c2cc(C(=O)O)ccc2c1C
20,236 °C,COC(=O)C1=C(C)NC(=O)N(C=O)C1c1ccccc1 (stereo not drawn)
21,138 to 139 °C,O=C(CBr)c1csc2ccccc12
22,142 to 143 °C,O=C1OC(c2ccccc2)=NC1=Cc1ccc(-c2ccccc2)o1
23,136 °C,Cc1c(C)c([N+](=O)[O-])c(C(C)(C)C)c([N+](=O)[O-])c1C
